Among the data in ChEMBL document CHEMBL3124782, “MHY884, a newly synthesized tyrosinase inhibitor, suppresses UVB-induced activation of NF-κB signaling pathway through the downregulation of oxidative stress” (Bioorg Med Chem Lett, 2014) are Activity and inhibition values, retold here.

Test [1] can be described thus: Antioxidant activity assessed as ROS scavenging activity at 1 to 10 uM by DCFDA assay. It counts as functional.
Test [2] relates to Mus musculus. Briefly: Antioxidant activity in UVB-irradiated melanin-possessing hairless mouse assessed as inhibition of NF-kappaB-mediated COX-2 expression in skin homogenate at 2 to 10 uM treated topically to dorsal skin once a day for 21 days concomitantly irradiated with UV-B on alternate days from day 2 post-treatment by Western blot method. It counts as functional, organism-based.

The test system of test [3] is Mus musculus. In words: Antioxidant activity in UVB-irradiated melanin-possessing hairless mouse assessed as effect on GSH/GSSG ratio in skin homogenate at 2 to 10 uM treated topically to dorsal skin once a day for 21 days concomitantly irradiated with UV-B on alternate days from day 2 post-treatment by o-phthalaldehyde assay. The test is classed as functional, organism-based.

Test [4] concerns Mus musculus. Briefly: Antioxidant activity in UVB-irradiated melanin-possessing hairless mouse assessed as inhibition of AKT-mediated IKKalphabeta phosphorylation at Ser176/180 residues in skin homogenate at 2 to 10 uM treated topically to dorsal skin once a day for 21 days concomitantly irradiated with UV-B on alternate days from day 2 post-treatment by Western blot method. It counts as functional, organism-based.

Test [5] has as its system Mus musculus. Briefly: Antioxidant activity in UVB-irradiated melanin-possessing hairless mouse assessed as inhibition of p65 NF-kappaB phosphorylation at Ser536 residue in skin homogenate at 2 to 10 uM treated topically to dorsal skin once a day for 21 days concomitantly irradiated with UV-B on alternate days from day 2 post-treatment by Western blot method. The test is classed as functional, organism-based.

In test [6] the test system is Mus musculus. Briefly: Antioxidant activity in melanin-possessing hairless mouse assessed as inhibition of UVB-induced ROS generation in skin homogenate compound treated topically to dorsal skin once a day for 21 days concomitantly irradiated with UV-B on alternate days from day 2 post-treatment by DCFDA assay. The test is classed as functional, organism-based.
Test [7] has as its system Mus musculus. Briefly: Antioxidant activity in melanin-possessing hairless mouse assessed as inhibition of UVB-induced peroxynitrite generation in skin homogenate compound treated topically to dorsal skin once a day for 21 days concomitantly irradiated with UV-B on alternate days from day 2 post-treatment by DHR 123 assay. The test is classed as functional, organism-based.

Test [8] relates to Mus musculus. Briefly: Antioxidant activity in UVB-irradiated melanin-possessing hairless mouse assessed as inhibition of nuclear translocation of p-p65 NF-kappaB Ser 536 in skin homogenate at 2 to 10 uM treated topically to dorsal skin once a day for 21 days concomitantly irradiated with UV-B on alternate days from day 2 post-treatment by Western blot method. It counts as functional, organism-based. (In general: A western blot detects proteins with antibodies after separation by electrophoresis.)

Test [9] in a line: Antioxidant activity assessed as peroxynitrite scavenging activity at 1 to 10 uM by DHR 123 assay. It counts as functional.
For test [10], the system named is B16-F10. Briefly: Inhibition of oxidative stress in mouse B16F10 cells assessed as SIN-1-induced ROS generation pretreated for 2 hrs followed by washout before SIN-1 challenge. It counts as functional, cell-based.
In test [11] the test system is Mus musculus. In words: Antioxidant activity in UVB-irradiated melanin-possessing hairless mouse assessed as inhibition of AKT phosphorylation at Thr 308 and Ser473 residues in skin homogenate at 2 to 10 uM treated topically to dorsal skin once a day for 21 days concomitantly irradiated with UV-B on alternate days from day 2 post-treatment by Western blot method. The test is classed as functional, organism-based.

For test [12], the system named is Mus musculus. In words: Antioxidant activity in UVB-irradiated melanin-possessing hairless mouse assessed as inhibition of NF-kappaB-mediated iNOS expression in skin homogenate at 2 to 10 uM treated topically to dorsal skin once a day for 21 days concomitantly irradiated with UV-B on alternate days from day 2 post-treatment by Western blot method. The test is classed as functional, organism-based.

The subject of test [13] is B16-F10. Briefly: Inhibition of oxidative stress in mouse B16F10 cells assessed as SIN-1-induced peroxynitrite generation pretreated for 2 hrs followed by washout before SIN-1 challenge. The test is classed as functional, cell-based.

Active and inactive are the calls of the source. No cut-off for these calls is given here.

With `Cc1c(C)c2c(c(C)c1O)CCC(C)(C(=O)O)O2` (stereo not given), the outcome in [1] was Active.
As for `COc1cc(C2Nc3cc(Cl)ccc3S2)cc(OC)c1O` (stereo not given), the result in [1] and in [9] was Active. Moreover, the inhibition result in [2], in [4], in test [5], in test [8], in test [11] and in test [12] was “Active” throughout. In test [3], the outcome was inactive. The inhibition result in test [6], in [7], in test [10] and in [13] was “Dose-dependent effect” throughout.
In the case of `CC(C)(S)[C@@H](N)C(=O)O`, the result in test [9] was Active.
